The values below come from a melting point compilation (Tetko et al.; mined from patent text by program, amines drawn as free bases though some values may be those of a salt).

Molecules are shown by their SMILES.

Usually melting point stands for the temperature of the solid-liquid transition.

With `CCOC(=O)c1ccc(-c2cnc3c(c2)N(Cc2ccccc2)C(=O)CN3)cc1`, the melting point was 178 °C.
In turn, `CC(=O)N(C)CCc1coc2ccc3c(c12)CCCO3` gave a melting point of 82 °C.
The compound `N#Cc1cc([N+](=O)[O-])ccc1Oc1cc(Cl)c(Cl)c(Cl)c1` yielded a melting point of 162 to 164 °C.
`CCC(=O)N1CCC(=NO)c2cc(F)ccc21` had a melting point of 126 to 128 °C.
As to `O=C(Cc1ccccc1)c1cc(Br)ccc1O`, the melting point lay in the range of 83 to 86 °C.
Next, `CCCCCCCCCCCCc1ccc2c(Cl)cccc2c1O`: 68 to 70 °C; `N#Cc1ccc2cccc(N3CCN(CCCCOc4ccc5c(n4)NC(=O)NCC5)CC3)c2c1`: 168 to 170 °C; `CCCCCCCCCCc1ccc(COc2ccc(-c3ncc(CCCCCCCCC)cn3)cc2)cc1`: 105 °C.
Next, `COCN1C(C)=NC(C)=C(C(=O)NCCCN2CCC(C(=O)OC)(c3ccccc3)CC2)C1c1ccc(F)c(F)c1` (configuration not stated): 53 to 57 °C; `CCOC(=O)c1cnc(O)nc1Cc1ccccc1`: 57 to 61 °C; `CC1CC2=C(N3CN(C)N=C3C(c3ccccc3Cl)=NC2)S1=O` (configuration not stated): 199 to 200 °C.
The compound `Cc1nnc2n1-c1sc(CCc3ccc(OC(C)C)cc3)cc1C(c1ccccc1Cl)=NC2` returned a melting point of 121 to 124 °C.
Compound `O=C(O)C1CCc2ccccc2O1` (single isomer, unassigned; (+)) returned a melting point of 85.5 °C.
For the compound `COC(=O)Nc1cccc(OCC(O)CN(Cc2ccccc2)C(C)(C)C)c1O` (configuration not stated), the melting point is 130 to 133 °C.
Regarding `Cc1cc(CCCOc2c(C)cc(-c3noc(C(N)=O)n3)cc2C)on1`, the melting point is 177 to 178 °C.
In turn, `CC(CN1CCCC1)N1c2ccccc2Sc2ccc(C(=O)NC3CCCC3)cc21` (racemic) registered a melting point of 132 °C.
For `Cc1ccc2cccc(OCc3c(Cl)ccc(S(=O)(=O)N(C)Cc4cccc(C(N)=O)c4)c3Cl)c2n1`, the melting point is 208 °C.
`CC(C)(Cc1c(Cc2ccccc2)c2cc(OCc3ccc4ccccc4n3)ccc2n1Cc1ccc(Cl)cc1)C(=O)O` registered a melting point of 178 °C.
`Cc1cc(O)c(S(=O)(=O)CC(C)C)c(=O)o1`: the melting point fell in the range of 90 to 91 °C.
For `CC(C)OC(=O)CC1SCN(c2ccc(Cl)c(Cl)c2)C1=O` (configuration not stated) the value was 54 to 56 °C.
Turning to `Cc1nn(C)c(S(N)(=O)=O)c1[N+](=O)[O-]`, the melting point lay within 138 to 140 °C.
`CC/C(=C\C=C\C(O)(C(F)(F)F)C(F)(F)F)c1cccc(CCc2ccc(CO)c(CO)c2)c1`: the melting point was found to be 104 °C.
For the compound `CC(=Cc1ccccc1)c1ccc2c(c1)SCCC2(C)C`, the melting point was in the range of 67 to 69 °C.
Next, `Cc1cc(C(C)(C)C)c(O)c(C)c1COC(=O)c1ccc(C(=O)OCc2c(C)cc(C(C)(C)C)c(O)c2C)cc1`: 227 to 230 °C.
Next, `CCOC(=O)Cc1ccc(OCCCCl)c(OC)c1`: 36 to 38 °C; `COc1cc(OC)nc(NC(=O)NS(=O)(=O)Cc2ccccc2-c2nnc(SC)o2)n1`: 174 to 177 °C; `Cc1ccc(NC(=O)c2ccc(CN(C)C)c(C(F)(F)F)c2)cc1-c1ccc2ccncc2c1`: 169 to 172 °C.
Consider `Clc1cccc(Nc2nc3nonc3nc2Nc2cccc(Cl)c2)c1`, for which the melting point was found to be 238 °C.
Compound `C=CCn1c(=O)c2c(nc(/C=C/c3ccc(O)c(OC)c3)n2C)n(CC=C)c1=O` had a melting point of 202 to 203 °C.
For `CNC1=NN(c2ccc(Cl)c(Cl)c2)CC1` the value was 68 to 70 °C.
Regarding `CC(C)(C)OC(=O)N1CCC(c2ccc3oc(-c4ccc(S(C)(=O)=O)cc4F)nc3c2)CC1`, the melting point is 168 to 171 °C.
Next, `COCC(C)Oc1cc(-n2c(=O)cc(C(F)(F)F)n(C)c2=O)c(F)cc1Cl` (configuration not stated): 80 to 82 °C; `CCCSC(=S)N1C(CO)Cc2c([nH]c3ccccc23)C1C` (configuration not stated): 115 to 118 °C; `CC(=O)Oc1ccc2scc(C(=O)O)c2c1`: 239 to 240 °C.
Compound `COc1nccc(-c2c(-c3ccc(F)cc3)ncn2C2CCC(=O)CC2)n1` came in with a melting point of 212 to 214 °C.
For `COC1CCC2(C)C(=CCC3C4CCC(=O)C4(C)CCC32)C1` (configuration not stated) the value was 133 to 135 °C; for `COc1cc2c(Nc3ccc4cn[nH]c4c3)c(C#N)cnc2cc1OCCN1CCc2ccccc2C1`, 170 to 173 °C; for `COc1cccc(P(=O)(c2ccc(C)cc2)c2ccc(C)cc2)c1`, 96 to 98 °C.
For `Cc1noc(NS(=O)(=O)c2ccc(NC(=O)CN)cc2-c2ccc(CC(C)C)cc2)c1C`, the melting point is 135 to 138 °C.
`CN(C(=O)c1coc(C=Cc2ccc(C(F)(F)F)cc2)n1)c1ccc(CCCCn2ccnn2)cc1` came in with a melting point of 127 to 129 °C.
As for `O=C(O)COc1cccc2c1CCc1sc(SC(c3cccc(F)c3)c3cccc(F)c3)nc1-2`, the melting point lay within 155 to 158 °C.
Compound `O=C1OC(CCOc2cccc3ccccc23)C(O)=C1O` (configuration not stated) displayed a melting point of 163 to 164 °C.
As to `CCCCc1oc2ccc(NS(C)(=O)=O)cc2c1C(=O)c1ccc(OCCN(CCCC)CCCC)cc1`, the melting point worked out at 86 °C.
`CCc1[nH]cnc1-c1cc(C(C)(C)C)c(O)c(C(C)(C)C)c1`: the melting point was 200 to 201 °C.
On to `CCCN(CCC)Cc1csc(-c2ncn3c2CN(C)C(=O)c2c-3ccc(F)c2Cl)n1`, for which the melting point turned out to be 123 °C.
`COc1cc2c(cc1Nc1ncc(Cl)c(Nc3cccc(N4CCOCC4)c3)n1)CCN(CC(=O)N(C)C)CC2` returned a melting point of 91 to 111 °C.
For the compound `O=[N+]([O-])c1ccccc1/C=C/c1ncon1`, the melting point is 128 °C.
Next, `CCOC(=O)c1cc(NCc2c(C)cccc2CC)c2nc(COC)n(C)c2c1`: 106 to 107 °C; `O=C1CCC(=O)N1c1ncccn1`: 148 to 150 °C; `Cc1c(N2CC[C@@H](C3(N)CC3)C2)ccc2c(=O)c(C(=O)O)cn(C3CC3)c12`: 230 to 233 °C.
For `Cn1c(=O)c(C#N)c(Cl)c2cc(F)ccc21` the value was 258 °C.
In the case of `CC1(C)COC(=O)N1c1nc(-c2ccc(Cl)c(F)c2)cs1`, the melting point was 140 to 142 °C.
Compound `O=C(c1c[nH]c2cc(Br)ccc12)C(F)(F)F` gave a melting point of 258 to 260 °C.
For `COc1nc2cc([N+](=O)[O-])c(C)c(C(=O)Cl)c2nc1OC` the value was 162 to 164 °C; for `CNC(=O)C(=NOC)c1ccccc1COc1ncc(C(=O)OC(C)C)cc1C`, 101 to 102 °C.
As to `COc1ccc(S(=O)(=O)Nc2onc(C)c2Br)cc1OC`, the melting point fell in the range of 136 to 138 °C.
For `COC(CCCNC(=O)CCCCCCCCC(=O)NCCCC(OC)OC)OC`, the melting point lay in the range of 83.5 to 85.5 °C.
The compound `CC(C)(C)OC(=O)NC(=N)c1ccc(C(=O)O)cc1` came in with a melting point of more than 200 °C.
On to `CNc1nc(-c2ccccc2)c(-c2nc3ccccc3c(=O)n2-c2ccc(C)cc2)s1`, for which the melting point fell in the range of 192 to 193 °C.
Next, `COc1ccc(C2=NN(CCCCOc3ccc(C4=NNC(=O)CC4C)c(F)c3F)C(=O)C2(C)C)c2cc(C(F)(F)F)sc12` (configuration not stated): 137 to 138 °C; `Nc1ncnc2c1ncn2Cc1oc2ccc(Br)cc2c(=O)c1-c1ccccc1F`: 231 to 233 °C; `COc1ccc(-c2cnc(SC(F)(F)C(F)F)nc2-c2ccc(OC)cc2)cc1`: 118 to 120 °C.
As for `CNc1cc(C)cc([N+](=O)[O-])c1N`, the melting point turned out to be 113 °C.
As to `COc1ccc(Cl)c(NC(=O)Cc2ccc(Cl)cc2)c1`, the melting point is 149 to 151 °C.
The compound `Cc1ccc(Cl)c(Nc2ccccc2-c2nnc(N)s2)c1Cl` came in with a melting point of 219 to 226 °C.
For `C=CCOc1ccc(CC(=O)O)cc1` the value was 61 to 62 °C.
Consider `OCC(CCc1ccc(Cl)cc1)Cn1cncn1` (configuration not stated), for which the melting point lay in the range of 40 to 45 °C.
Consider `COC(=O)CCn1c(=O)n2n(c1=O)C(C(=O)OC)C=CC2C(=O)OC` (configuration not stated), for which the melting point was in the range of 139 to 141 °C.
For `Cc1ccc(-c2nc(CN3CCN(C(c4ccccc4)c4ccccc4)CC3)c(C)[nH]2)cc1` the value was 238 °C; for `O=C1N(Cc2ccc(O)cc2)c2ccccc2C12COc1cc3c(cc12)OCCO3` (configuration not stated), 243 to 244 °C.
On to `C[C@H]1CCCN(C(=O)[C@@H]2Cc3ccccc3N2c2ccc3nncn3n2)C1`, for which the melting point was more than 300 °C.
Regarding `C#CC(=O)N1CCN(C(=O)OC2C3=C(OCCS3)C(=O)N2c2ccc3ccc(Cl)nc3n2)CC1` (configuration not stated), the melting point came out at 302 °C.
Regarding `Clc1n[nH]c2cccc(NC3=NCCN3)c12`, the melting point lay in the range of 245 to 250 °C.
`CCCN(C1CC(C)(C)Oc2ccc(O)cc21)S(=O)(=O)CC` (configuration not stated) returned a melting point of 173 to 175 °C.
Next, `CC(C)CC(C)(C(=O)NC1CCCCCCCCCCNC1=O)c1cccc(Cl)c1S` (configuration not stated): 143 to 148 °C; `CC(C)(C)OC(=O)N1Cc2ccccc2CN1`: 68 to 71 °C.
In turn, `Nc1nc(N)c(CCCNc2ccc(C(=O)N[C@@H](CCC(=O)O)C(=O)O)cc2F)c(=O)[nH]1` displayed a melting point of more than 175 °C.
`CC(C)CN(CC(C)C)c1ccc(C(=O)c2ccccc2)cc1[N+](=O)[O-]` returned a melting point of 80 to 81 °C.
In turn, `CCCOc1ncc2c(=O)[nH]c(-c3ccccc3OCCC)nc2n1` gave a melting point of 157 to 158 °C.
With `CC(C)N(CCNC(=O)N1CCCC(S(=O)(=O)c2ccccc2)C1)C(C)C` (configuration not stated), the melting point fell in the range of 82.5 to 84 °C.
Next, `NCCc1cc(F)cc(C(F)(F)F)c1`: more than 170 °C.
`CC1(Cn2nc(-c3ccc(Br)cc3)oc2=O)Cn2cc([N+](=O)[O-])nc2O1` (configuration not stated) showed a melting point of 231 to 233 °C.
`COc1c(N2CCC(n3cc(C)nn3)C2)c(F)cc2c(=O)c(C(=O)O)cn(C3CC3)c12` (configuration not stated) displayed a melting point of 174 to 176 °C.
On to `Cc1ccc(-c2nc(C)ccc2N2CCN(c3ccc(C)cc3)CC2)cc1`, for which the melting point lay within 131 to 139 °C.
Turning to `Nc1c(Cl)cc(I)cc1Cl`, the melting point was in the range of 100 to 102 °C.
In the case of `CC(=O)Oc1cc(N2C(=O)CC(SC3CCCCC3)C2=O)ccc1C(=O)O` (configuration not stated), the melting point lay in the range of 155 to 158 °C.
For `COC(=O)CCC(=O)c1cc(NC(C)=O)ccc1OCC1CO1` (configuration not stated), the melting point was in the range of 84 to 87 °C.
